The source made the active and inactive calls. The calls are words filed in the database; no cut-off is given here.
Tests used:
[1] = tested on: Human immunodeficiency virus 1; assay: (§1) Potentiation of 5-Aza-dC-induced antiviral activity against VSV-G pseudotyped HIV-1 NL4-3 infected in human U373-MAGI cells assessed as reduction in viral infectivity at 25 uM preincubated for 2 hrs followed by 5-Aza-dC addition for 2 hrs and subsequent viral infection measured at 72 hrs post infection by flow cytometric analysis; assay type: functional, organism-based
[2] = tested on: Human immunodeficiency virus 1; assay: (§2) Potentiation of 5-Aza-dC-induced antiviral activity against VSV-G pseudotyped HIV-1 NL4-3 infected in human U373-MAGI cells assessed as Nef mutation at 50 uM incubated for 4 hrs preinfection followed by 5-Aza-C addition for 2 hrs preinfection and subsequent viral infection measured at 72 hrs post infection by illumina sequencing method (reference value: 22.6%); assay type: functional
[3] = tested on: Human immunodeficiency virus 1; assay: Antiviral activity against VSV-G pseudotyped HIV-1 NL4-3 infected in human U373-MAGI cells assessed as Env mutation at 50 uM incubated for 4 hrs prior to infection measured at 72 hrs post infection by illumina sequencing method (reference value: 21.4%); assay type: functional
[4] = tested on: Human immunodeficiency virus 1; assay: as §2, with “Pol” for “Nef”, “18.5%)” for “22.6%)”; assay type: functional
[5] = tested on: Human immunodeficiency virus 1; assay: Antiviral activity against VSV-G pseudotyped HIV-1 NL4-3 infected in human U373-MAGI cells assessed as increase in frequency of A to C transversion at 50 uM incubated for 4 hrs prior to infection measured at 72 hrs post infection by illumina sequencing method relative to control; assay type: functional
[6] = tested on: Human immunodeficiency virus 1; assay: Antiviral activity against VSV-G pseudotyped HIV-1 NL4-3 infected in human U373-MAGI cells assessed as increase in frequency of A to T transversion at 50 uM incubated for 4 hrs prior to infection measured at 72 hrs post infection by illumina sequencing method relative to control; assay type: functional
[7] = tested on: Human immunodeficiency virus 1; assay: Antiviral activity against VSV-G pseudotyped HIV-1 NL4-3 infected in human U373-MAGI cells assessed as increase in frequency of T to A transversion at 50 uM incubated for 4 hrs prior to infection measured at 72 hrs post infection by illumina sequencing method relative to control; assay type: functional
[8] = tested on: U373-MAGI; assay: Effect on dRGU-TP level in human U373-MAGI cells at 50 uM preincubated for 2 hrs followed by 5-aza-dC addition measured after 4 hrs by LC-MS/MS analysis; assay type: functional, cell-based
[9] = tested on: U373-MAGI; assay: Effect on dRGU-TP level in human U373-MAGI cells at 200 uM preincubated for 2 hrs followed by 5-aza-dC addition measured after 4 hrs by LC-MS/MS analysis; assay type: functional, cell-based
[10] = tested on: U373-MAGI; assay: Reduction in dGTP level in human U373-MAGI cells at 50 uM after 6 hrs by LC-MS/MS analysis; assay type: functional, cell-based
[11] = tested on: U373-MAGI; assay: Effect on 5-aza-dCTP level in human U373-MAGI cells at 200 uM preincubated for 2 hrs followed by 5-aza-dC addition measured after 4 hrs by LC-MS/MS analysis; assay type: functional, cell-based
[12] = tested on: U373-MAGI; assay: Reduction in 5-aza-dCTP level in human U373-MAGI cells at 50 uM preincubated for 2 hrs followed by 5-aza-C addition measured after 4 hrs by LC-MS/MS analysis; assay type: functional, cell-based
[13] = tested on: U373-MAGI; assay: Reduction in dGTP level in human U373-MAGI cells at 200 uM after 6 hrs by LC-MS/MS analysis; assay type: functional, cell-based
[14] = tested on: Human immunodeficiency virus 1; assay: as §2, with “5-Aza-C-induced” for “5-Aza-dC-induced”, “Pol” for “Nef”, “18.5%)” for “22.6%)”; assay type: functional
[15] = tested on: U373-MAGI; assay: Reduction in dTTP level in human U373-MAGI cells at 200 uM after 6 hrs by LC-MS/MS analysis; assay type: functional, cell-based
[16] = tested on: Human immunodeficiency virus 1; assay: as §2, with “5-Aza-C-induced” for “5-Aza-dC-induced”, “Gag” for “Nef”, “18.4%)” for “22.6%)”; assay type: functional
[17] = tested on: U373-MAGI; assay: Increase in 5-aza-dCTP/dCTP ratio in human U373-MAGI cells at 200 uM preincubated for 2 hrs followed by 5-aza-dC addition measured after 4 hrs by LC-MS/MS analysis relative to 5-aza-dC; assay type: functional, cell-based
[18] = tested on: Human immunodeficiency virus 1; assay: Antiviral activity against VSV-G pseudotyped HIV-1 NL4-3 infected in human U373-MAGI cells assessed as increase in frequency of […] transversion at 50 uM incubated for 4 hrs prior to infection measured at 72 hrs post infection by illumina sequencing method relative to control; assay type: functional
[19] = tested on: U373-MAGI; assay: Reduction in dCTP level in human U373-MAGI cells at 50 uM preincubated for 2 hrs followed by 5-aza-C addition measured after 4 hrs by LC-MS/MS analysis; assay type: functional, cell-based
[20] = tested on: Human immunodeficiency virus 1; assay: as §2, with “5-Aza-C-induced” for “5-Aza-dC-induced”, “Env” for “Nef”, “21.4%)” for “22.6%)”; assay type: functional
[21] = tested on: Human immunodeficiency virus 1; assay: as §2, with “5-Aza-C-induced” for “5-Aza-dC-induced”, “Vif” for “Nef”, “19.2%)” for “22.6%)”; assay type: functional
[22] = tested on: U373-MAGI; assay: Increase in 5-aza-dCTP/dCTP ratio in human U373-MAGI cells at 50 uM preincubated for 2 hrs followed by 5-aza-C addition measured after 4 hrs by LC-MS/MS analysis relative to 5-aza-C; assay type: functional, cell-based
[23] = tested on: U373-MAGI; assay: Reduction in dRGU-TP level in human U373-MAGI cells at 200 uM preincubated for 2 hrs followed by 5-aza-C addition measured after 4 hrs by LC-MS/MS analysis; assay type: functional, cell-based
[24] = tested on: Human immunodeficiency virus 1; assay: as §1, with “5-Aza-C-induced” for “5-Aza-dC-induced”, “25 to 100” for “25”, “5-Aza-C” for “5-Aza-dC”; assay type: functional, organism-based
[25] = tested on: Human immunodeficiency virus 1; assay: as §2, with “Gag” for “Nef”, “18.4%)” for “22.6%)”; assay type: functional
[26] = tested on: Human immunodeficiency virus 1; assay: Potentiation of 5-Aza-C-induced antiviral activity against VSV-G pseudotyped HIV-1 NL4-3 infected in human U373-MAGI cells assessed as reduction in viral infectivity at 50 uM preincubated for 2 to 8 hrs followed by 5-Aza-C addition for 2 hrs and subsequent viral infection measured at 72 hrs post infection by flow cytometric analysis; assay type: functional, organism-based
[27] = tested on: Human immunodeficiency virus 1; assay: Potentiation of 5-Aza-dC-induced antiviral activity against VSV-G pseudotyped HIV-1 NL4-3 infected in human U373-MAGI cells assessed as reduction in U5-gag level at 50 uM after 2 to 72 hrs by qPCR method; assay type: functional, organism-based
[28] = tested on: Human immunodeficiency virus 1; assay: as §2, with “Vif” for “Nef”, “19.2%)” for “22.6%)”; assay type: functional
[29] = tested on: Human immunodeficiency virus 1; assay: Antiviral activity against VSV-G pseudotyped HIV-1 NL4-3 infected in human U373-MAGI cells assessed as reduction in gag level at 50 uM measured at 6 hrs post infection by qPCR method; assay type: functional, organism-based
[30] = tested on: Human immunodeficiency virus 1; assay: as §2, with “Env” for “Nef”, “21.4%)” for “22.6%)”; assay type: functional

For Oc1ccc(/C=C/c2cc(O)cc(O)c2)cc1 [RESVERATROL], the Activity [1] was “Active”, the Activity [2] was 20.3% and the Activity [3] was 22.5%. The Activity [4] was 18.9%, the “fold change (FC)” value [5] was 1.8 and the “fold change (FC)” value [6] was 1.8. For the same compound, the “fold change (FC)” value [7] was 1.8, the Activity [8] was “inactive” and the Activity [9] was “inactive”. The Activity [10] was “inactive”, the Activity [11] was “inactive” and the Activity [12] was “inactive”. For the same compound, the Activity [13] was “Active”, the Activity [14] was 21.9% and the Activity [15] was “Active”. For the same compound, the Activity [16] was 15.5%, the Activity [17] was “Active” and the “fold change (FC)” value [18] was 2. For the same compound, the Activity [19] was “Active”, the Activity [20] was 22.8% and the Activity [21] was 22.6%. The Activity [22] was “Active”, the Activity [23] was “Active” and the Activity [24] was “Active”. The Activity [25] was 15.7%, the Activity [26] was “Active” and the Activity [27] was “Active”. For the same compound, the Activity [28] was 25.1%, the Activity [29] was “Active” and the Activity [30] was 20.1%.

From ChEMBL document CHEMBL3797079, “Synergistic reduction of HIV-1 infectivity by 5-azacytidine and inhibitors of ribonucleotide reductase” (Bioorg Med Chem, 2016)
